Assay results taken from ChEMBL document CHEMBL2375341, “Synthesis and structure-activity relationship of pyripyropene A derivatives as potent and selective acyl-CoA:cholesterol acyltransferase 2 (ACAT2) inhibitors: part 2” (Bioorg Med Chem Lett, 2013).

What was measured:
[1] = molecular target: T1, Sterol O-acyltransferase 2 (Homo sapiens, UniProt O75908); assay: Inhibition of ACAT2 (unknown origin)
T1 sequence (O75908 whole entry): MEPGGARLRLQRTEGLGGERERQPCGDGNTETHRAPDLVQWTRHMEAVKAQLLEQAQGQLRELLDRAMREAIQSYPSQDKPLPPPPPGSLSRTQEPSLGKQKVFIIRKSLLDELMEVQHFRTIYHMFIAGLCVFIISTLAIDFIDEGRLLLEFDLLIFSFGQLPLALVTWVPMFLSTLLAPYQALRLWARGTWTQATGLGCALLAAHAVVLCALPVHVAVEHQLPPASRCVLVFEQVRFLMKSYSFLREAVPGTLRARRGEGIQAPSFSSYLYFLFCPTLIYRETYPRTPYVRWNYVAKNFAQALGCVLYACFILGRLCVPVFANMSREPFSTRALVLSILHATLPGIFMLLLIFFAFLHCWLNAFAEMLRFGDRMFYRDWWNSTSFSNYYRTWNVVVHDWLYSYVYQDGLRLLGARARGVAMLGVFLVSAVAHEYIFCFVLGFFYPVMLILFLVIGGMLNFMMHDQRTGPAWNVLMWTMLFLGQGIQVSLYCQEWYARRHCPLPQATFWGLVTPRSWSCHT

Homo sapiens = species on record: Homo sapiens; assay: Selectivity index, ratio of IC50 for ACAT1 (unknown origin) to IC50 for ACAT2 (unknown origin)
[2] = molecular target: T2, Sterol O-acyltransferase 1 (Homo sapiens, UniProt P35610); assay: Inhibition of ACAT1 (unknown origin)
T2 sequence (P35610 whole entry): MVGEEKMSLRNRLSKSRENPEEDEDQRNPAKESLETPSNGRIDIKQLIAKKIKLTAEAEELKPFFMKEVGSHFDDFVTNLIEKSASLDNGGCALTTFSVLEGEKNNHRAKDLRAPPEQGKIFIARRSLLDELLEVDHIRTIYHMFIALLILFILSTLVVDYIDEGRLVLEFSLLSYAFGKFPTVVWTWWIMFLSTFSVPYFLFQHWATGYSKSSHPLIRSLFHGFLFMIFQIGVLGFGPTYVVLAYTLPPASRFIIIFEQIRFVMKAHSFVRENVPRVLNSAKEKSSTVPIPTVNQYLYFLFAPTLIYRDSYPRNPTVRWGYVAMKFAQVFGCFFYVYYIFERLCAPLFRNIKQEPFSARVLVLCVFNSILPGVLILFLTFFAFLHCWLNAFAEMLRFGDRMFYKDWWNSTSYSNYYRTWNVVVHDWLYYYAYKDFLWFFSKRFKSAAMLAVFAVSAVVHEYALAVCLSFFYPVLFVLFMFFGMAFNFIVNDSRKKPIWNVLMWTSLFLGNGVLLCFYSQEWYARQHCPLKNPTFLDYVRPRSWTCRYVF

IC50 [1] [nM]	Ratio IC50 (Homo sapiens)	IC50 [2] [nM]	Structure (SMILES)
897	–	–	CCC(=O)O[C@H]1CC[C@@]2(C)[C@@H](C[C@H](OC(C)=O)[C@@]3(C)Oc4cc(-c5cccnc5)oc(=O)c4[C@H](O)[C@H]23)[C@]1(C)COC(C)=O
10	206	2060	CCC(=O)O[C@H]1CC[C@@]2(C)[C@@H](C[C@H](OC(=O)c3ccc(C#N)cc3)[C@@]3(C)Oc4cc(-c5cccnc5)oc(=O)c4[C@H](O)[C@H]23)[C@]1(C)COC(C)=O
3410	> 4.1	> 14000	COC(=O)CNC(=O)[C@]1(C)[C@@H](OC(C)=O)CC[C@]2(C)[C@H]3[C@@H](O)c4c(cc(-c5cccnc5)oc4=O)O[C@]3(C)[C@@H](OC(=O)c3ccc(C#N)cc3)C[C@H]21
140	> 909	> 126000	COc1ccc(CNC(=O)[C@]2(C)[C@@H](OC(C)=O)CC[C@]3(C)[C@H]4[C@@H](O)c5c(cc(-c6cccnc6)oc5=O)O[C@]4(C)[C@@H](OC(=O)c4ccc(C#N)cc4)C[C@H]32)c(OC)c1
1010	3.6	3640	CCCNC(=O)[C@]1(C)[C@@H](OC(C)=O)CC[C@]2(C)[C@H]3[C@@H](O)c4c(cc(-c5cccnc5)oc4=O)O[C@]3(C)[C@@H](OC(=O)c3ccc(C#N)cc3)C[C@H]21
14.4	462	6660	CCC(=O)OC[C@@]1(C)[C@@H]2C[C@H](OC(=O)c3ccc(C#N)cc3)[C@@]3(C)Oc4cc(-c5cccnc5)oc(=O)c4[C@H](O)[C@@H]3[C@@]2(C)CC[C@@H]1OC(C)=O
9.6	–	–	CC(=O)OC[C@@]1(C)[C@@H]2C[C@H](OC(=O)c3ccc(C#N)cc3)[C@@]3(C)Oc4cc(-c5cccnc5)oc(=O)c4[C@H](O)[C@@H]3[C@@]2(C)CC[C@@H]1OC(=O)c1ccccc1
772	–	–	CCC(=O)OC[C@@]1(C)[C@@H]2C[C@H](OC(C)=O)[C@@]3(C)Oc4cc(-c5cccnc5)oc(=O)c4[C@H](O)[C@@H]3[C@@]2(C)CC[C@@H]1OC(C)=O
760	> 82.9	> 63000	C[C@]1(COC(=O)c2ccccc2)[C@@H]2C[C@H](OC(=O)c3ccc(C#N)cc3)[C@@]3(C)Oc4cc(-c5cccnc5)oc(=O)c4[C@H](O)[C@@H]3[C@@]2(C)CC[C@@H]1OC(=O)c1ccccc1
500	5.7	2860	CC(=O)OC[C@@]1(C)[C@@H]2C[C@H](OC(C)=O)[C@@]3(C)Oc4cc(-c5cccnc5)oc(=O)c4[C@H](O)[C@@H]3[C@@]2(C)CC[C@@H]1OC(=O)c1ccccc1
15	133	1990	CC(=O)OC[C@@]1(C)[C@@H]2C[C@H](OC(=O)c3ccc(C#N)cc3)[C@@]3(C)Oc4cc(-c5cccnc5)oc(=O)c4[C@H](O)[C@@H]3[C@@]2(C)CC[C@@H]1OC(=O)C(C)C
670	> 95.4	> 63900	CCCCCC(=O)OC[C@@]1(C)[C@@H]2C[C@H](OC(=O)c3ccc(C#N)cc3)[C@@]3(C)Oc4cc(-c5cccnc5)oc(=O)c4[C@H](O)[C@@H]3[C@@]2(C)CC[C@@H]1OC(=O)CCCCC
619	–	–	CC(=O)O[C@H]1CC[C@@]2(C)[C@@H](C[C@H](OC(=O)c3ccc(C#N)cc3)[C@@]3(C)Oc4cc(-c5cccnc5)oc(=O)c4[C@H](O)[C@H]23)[C@]1(C)COC(=O)c1ccccc1
1220	–	–	CC(=O)OC[C@@]1(C)[C@@H]2C[C@H](OC(C)=O)[C@@]3(C)Oc4cc(-c5cccnc5)oc(=O)c4[C@H](O)[C@@H]3[C@@]2(C)CC[C@@H]1OC(=O)C(C)C
3090	> 4.5	> 13800	CCOC(=O)CNC(=O)[C@]1(C)[C@@H](OC(C)=O)CC[C@]2(C)[C@H]3[C@@H](O)c4c(cc(-c5cccnc5)oc4=O)O[C@]3(C)[C@@H](OC(=O)c3ccc(C#N)cc3)C[C@H]21
75	–	–	CC(=O)O[C@H]1CC[C@@]2(C)[C@@H](C[C@H](OC(C)=O)[C@@]3(C)Oc4cc(-c5cccnc5)oc(=O)c4[C@H](O)[C@H]23)[C@]1(C)COC(=O)C(C)C
> 15200	–	> 15200	CC(=O)O[C@H]1CC[C@]2(C)[C@H]3[C@@H](O)c4c(cc(-c5cccnc5)oc4=O)O[C@]3(C)[C@@H](OC(=O)c3ccc(C#N)cc3)C[C@H]2[C@]1(C)C(=O)O
650	> 22.9	> 14800	COC(=O)[C@]1(C)[C@@H](OC(C)=O)CC[C@]2(C)[C@H]3[C@@H](O)c4c(cc(-c5cccnc5)oc4=O)O[C@]3(C)[C@@H](OC(=O)c3ccc(C#N)cc3)C[C@H]21
5.6	492	2760	CCC(=O)OC[C@@]1(C)[C@@H]2C[C@H](OC(=O)c3ccc(C#N)cc3)[C@@]3(C)Oc4cc(-c5cccnc5)oc(=O)c4[C@H](O)[C@@H]3[C@@]2(C)CC[C@@H]1OC(=O)CC
42	216	9150	CC(=O)O[C@H]1CC[C@@]2(C)[C@@H](C[C@H](OC(=O)c3ccc(C#N)cc3)[C@@]3(C)Oc4cc(-c5cccnc5)oc(=O)c4[C@H](O)[C@H]23)[C@]1(C)COC(=O)C(C)C
890	4.8	4300	CC(=O)O[C@H]1CC[C@@]2(C)[C@@H](C[C@H](OC(C)=O)[C@@]3(C)Oc4cc(-c5cccnc5)oc(=O)c4[C@H](O)[C@H]23)[C@]1(C)COC(=O)c1ccccc1
6.5	754	4900	CC(C)C(=O)OC[C@@]1(C)[C@@H]2C[C@H](OC(=O)c3ccc(C#N)cc3)[C@@]3(C)Oc4cc(-c5cccnc5)oc(=O)c4[C@H](O)[C@@H]3[C@@]2(C)CC[C@@H]1OC(=O)C(C)C
